Values quoted from earlier work, collected in patent publication US9555150B2, “Absorbent articles comprising an organic zinc salt and an anti-bacterial agent or alkali metal chloride or alkaline earth metal chloride” (SCA HYGIENE PRODUCTS AB, priority 2006, dated 2017).

Conditions: measured in water at 25° C

pK | Structure (SMILES)
4.75 | CC(=O)O [Acetic acid, acetic acid]
4.76 | C/C=C/C=C/C(=O)O [sorbic acid]

Structure (SMILES) | pK
O=C(O)c1ccccc1 [benzoic acid] | 4.19
